# Laboratory results from patent US20040102454A1, “Phenylahistin and the phenylahistin analogs, a new class of anti-tumor compounds” (priority 1998, published 2004).
# Several values for one entry are separate records, joined by “and”; a condition that tells them apart may be missing. Equal values may be shown once.
# Columns and labels:
# T. rubrum isolate #1 = assay: Antifungal susceptibility testing, broth dilution (NCCLS M38-A); format: cell-based, Trichophyton rubrum; details: dermatophytes
# Procedure: Antifungal susceptibility testing was accomplished according to the methods outlined in the National Committee for Clinical Laboratory Standards, M38-A “Reference Method for Broth Dilution Antifungal Susceptibility Testing of Conidium-Forming Filamentous Fungi; Approved Standard.” This includes testing in RPMI-1640 with glutamine and without bicarbonate, an inoculum size of 0.4-5×10^4, and incubation at 30 or 35° C. for 48 hours. […] Drug concentrations were 0.03-16 μg/ml for the investigational compounds, 0.015-8 μg/ml for itraconazole and griseofulvin.
# The minimum lethal concentration (MLC) was determined by plating […] from the MIC concentration and each concentration above the MIC. […] When a MIC was obtained, a minimum fungicidal concentration (MFC) was determined to assess the fungistatic/fungicidal nature of the compound. […] The compound is scored as fungistatic if the cells are able to resume growth and fungicidal if no regrowth is possible because the compound had killed the organisms.
# [1] = test system: HL-60 (Mitoxantrone-Sensitive) human acute promyelocytic leukemia cell line; assay: Drug resistant cell line pair, cytotoxicity; format: cell-based; details: HL-60 Sensitive
# Description: 2) Human Acute Promyelocytic Leukemia Cell Line Pair: HL-60 (Mitoxantrone-Sensitive) and HL-60/MX-2 (Mitoxantrone-Resistant)
# This cell line is considered to have atypical drug resistance properties with altered topoisomerase II catalytic activity without overexpression of P-glycoprotein.
# [2] = test system: MES-SA (Taxol Sensitive) human uterine sarcoma tumor cell line; assay: Drug resistant cell line pair, cytotoxicity; format: cell-based
# Description: (§1) MES-SA (Taxol Sensitive) and MES-SA DX (Taxol Resistant). This cell line expresses elevated mdr-1 mRNA and P-glycoprotein (an extrusion pump mechanism). Pretreatment with cyclosporin-A (CsA) blocks P-glycoprotein and reinstates activity in the resistant cell line for those compounds for which the resistance is due to elevated P-glycoprotein.
# [3] = test system: MES-SA DX (Taxol Resistant) human uterine sarcoma tumor cell line; assay: Drug resistant cell line pair, cytotoxicity; format: cell-based; details: MES-SA DX Resistant
# Description: as §1
# [4] = test system: NCI-H292 Lung (human non-small cell lung tumor); assay: Tumor Panel Screen, Resazurin cytotoxicity assay; format: cell-based
# Description: (§2) The following cell lines (source in parentheses) were used: HT29 (human colon tumor; ATCC; HTB-38), PC3 (human prostate tumor; ATCC; CRL-1435), MDA-MB-231 (human breast tumor; ATCC; HTB-26), NCI-H292 (human non-small cell lung tumor; ATCC; CRL-1848), OVCAR-3 (human ovarian tumor; ATCC; HTB-161), B16-F10 (murine melanoma; ATCC; CRL-6475) and CCD-27 sk (normal human fibroblast; ATCC; CRL-1475). Cells were maintained at subconfluent densities in their respective culture media.
# (§3) Cytotoxicity assays were performed as described above in Example 4, using Resazurin fluorescence as an indicator of cell viability.
# [5] = test system: HT-29 Colon (human colon tumor); assay: Tumor Panel Screen, Resazurin cytotoxicity assay; format: cell-based
# Description: as §2, §3
# [6] = test system: OVCAR-3 Ovary (human ovarian tumor); assay: Tumor Panel Screen, Resazurin cytotoxicity assay; format: cell-based
# Description: as §2, §3
# [7] = test system: PC-3 Prostate (human prostate tumor); assay: Tumor Panel Screen, Resazurin cytotoxicity assay; format: cell-based
# Description: as §2, §3
# [8] = test system: B16-F10 Melanoma (murine melanoma); assay: Tumor Panel Screen, Resazurin cytotoxicity assay; format: cell-based
# Description: as §2, §3
# [9] = test system: MDA-MB-231 Breast (human breast tumor); assay: Tumor Panel Screen, Resazurin cytotoxicity assay; format: cell-based
# Description: as §2, §3
# [10] = test system: CCD-27sk Fibroblast (normal human fibroblast); assay: Tumor Panel Screen, Resazurin cytotoxicity assay; format: cell-based
# Description: as §2, §3
# HT-29 human colon tumor = assay: HT-29 Human Colon Tumor Xenograft Model; format: in vivo, nude mice
# Procedure: Animals used were (exceptions are indicated for individual studies): female nude mice (nu/nu) between 5 and 6 weeks of age (˜20 g, Harlan); group size was 9-10 mice per group unless otherwise indicated. The selected novel compound was administered as monotherapy via the intraperitoneal (i.p.) route at the doses indicated for the individual study; for the combination studies the selected reference chemotherapy agents were injected 15-30 min prior to the compound. Vehicles used in these studies were: 12.5% DMSO, 5% Cremaphor and 82.5% peanut oil for the selected novel compounds; (1:3) Polysorbate 80:13% ethanol for taxotere; […] Saline dilutions are used to achieve the injection concentrations used for the reference compounds. Animals were implanted subcutaneously (s.c.) by trocar with fragments of HT-29 tumors harvested from s.c. growing tumors in nude mice hosts. […] CPT-11 was administered intraperitoneally on days 1, 8 and 15 (qw×3).
# [11] = test system: DU-145 human prostate tumor; assay: DU-145 Human Prostate Tumor Xenograft Model; format: in vivo, nude mice; details: alone and in combination with taxotere
# Procedure: Male mice were implanted s.c. by trocar with fragments of DU-145 tumors harvested from s.c. growing tumors in nude male mice hosts. When the tumors reached ˜5 mm×5 mm ( at about 13-17 days) the animals were matched into treatment and control groups. The remainder of the study proceeded as for the HT-29 model, using taxotere as the standard chemotherapy agent.
# In this model unless otherwise noted for the individual study, test compound was administered via the intraperitoneal route on Days 1, 3, 5, 8 and 11 (q3d×5); taxotere was administered intravenously on Days 1, 3 and 5 (q2d×3).
# The study involved an assessment of t-butyl-phenyalhistin alone and in combination with taxotere.
# [12] = test system: HL-60/MX-2 (Mitoxantrone-Resistant) human acute promyelocytic leukemia cell line; assay: Drug resistant cell line pair, cytotoxicity; format: cell-based; details: HL-60 Resistant
# Description: HL-60 (Mitoxantrone-Sensitive) and HL-60/MX-2 (Mitoxantrone-Resistant) This cell line is considered to have atypical drug resistance properties with altered topoisomerase II catalytic activity without overexpression of P-glycoprotein.
# MCF-7 human breast tumor = assay: MCF-7 Human Breast Tumor Xenograft Model; format: in vivo, nude mice; details: in combination with taxotere; compound Days 1, 2, 3, 4, and 7
# Procedure: Female nude mice (˜20 g) were implanted s.c. with 21-day release estrogen (0.25 mg) pellets 24 hours prior to the s.c. implantation with MCF-7 tumor fragments (harvested from s.c. tumors in nude mice hosts). The study then proceeded as described for the HT-29 model, using taxotere as the standard chemotherapy agent.
# In this model unless otherwise noted for the individual study, the novel compound was injected via the intraperitoneal route daily on Days 1-5, inclusive (qd×5); taxotere was administered intravenously on Days 1, 3 and 5 (qod×3).
# This study considered the effects of t-butyl-phenylahistin in the MCF-7 human breast tumor xenograft model. The doses of the compound were administered on Days 1, 2, 3, 4, and 7; Taxotere was administered on Days 1, 3 and 7.
# [13] = test system: tubulin in Human umbilical vein endothelial cells (HuVEC); assay: Action on microtubule function, staining for α-tubulin; format: cell-based; details: 2 μM, thirty minutes exposure
# HuVEC monolayer = HuVEC monolayer permeability to FITC-Dextran; format: cell-based, human
# Description: This vascular collapse is preceded by a rapid induction of vascular cell permeability initially to electrolytes and soon after to large molecules. The enhanced permeability of HuVEC cells to a fluorescent-labeled dextran is used as a proxy assay for vascular collapse.
# [14] = test system: Caspase-3 in Jurkat cells; assay: Activation of the caspase cascade; format: cell-based
# Description: Several enzymes in the caspase cascade are activated during apoptosis, including Caspase-3, -8 and-9. The activity of Caspase-3 was monitored in Jurkat cells following treatment with t-butyl-phenylahistin.
smiles,measurement,setting,value
CC(C)(C)c1[nH]cnc1/C=C1\NC(=O)[C@H](Cc2ccccc2)NC1=O [t-butyl-phenylahistin],potency compared to griseofulvin,T. rubrum isolate #1,at least was equivalent in potency
same,IC50,[1],0.255 µM
same,IC50,[2]; CsA Pretreat,0.162 µM
same,IC50,[2]; No CsA,0.144 µM and 0.122 µM
same,IC50,[3]; CsA Pretreat,0.622 µM
same,IC50,[3]; No CsA,0.825 µM and 0.694 µM
same,"% Cytotoxicity, Mean",[4],65%
same,IC50,[4],0.384 µM
same,"% Cytotoxicity, Mean",[5],88%
same,IC50,[5],0.42 µM
same,"% Cytotoxicity, Mean",[6],37%
same,IC50,[6],> 20 µM
same,"% Cytotoxicity, Mean",[7],59.5%
same,IC50,[7],0.174 µM
same,"% Cytotoxicity, Mean",[8],74%
same,IC50,[8],0.736 µM
same,"% Cytotoxicity, Mean",[9],65.5%
same,IC50,[9],0.387 µM
same,"% Cytotoxicity, Mean",[10],45%
same,IC50,[10],> 20 µM
same,Comments,HT-29 human colon tumor; combination with CPT-11,Synergy
same,NPI-Compound Result TGI %,"HT-29 human colon tumor; monotherapy 30 mg/kg ip q3dx5, study 2139",No Effect
same,Exceed NCI Criterion (TGI 58%),HT-29 human colon tumor; study 2139,Combination
same,Combination Results TGI %,"HT-29 human colon tumor; t-butyl-phenylahistin 30 mg/kg ip q3dx5 + CPT-11 100 ip qwx3, p < 0.05 vs Control and vs CPT-11 Alone",77.7%
same,tumor growth inhibition indices (excised tumor weights),[11],marked inhibition of tumor growth
same,IC50,[12],0.175 µM
same,effect on estimated tumor growth,MCF-7 human breast tumor,significant potentiation of taxotere
same,microtubule depolymerization,[13],induced microtubule depolymerization
same,time to induction of HuVEC monolayer permeability,HuVEC monolayer,≤ 1 h
same,HuVEC monolayer permeability,HuVEC monolayer; FITC-Dextran,induced significant HuVEC monolayer permeability
same,caspase-3 activation,[14],activated in a dose-dependent manner
same,IC50,Jurkat cells,0.165 µM
